Data as given in patent US12590123B2, “Compounds and methods for treating cancer, viral infections, and allergic conditions” (Washington University, priority 2019, dated 2026).
Read-outs that look alike come from different tables or passages of the source. Starred links: 1 amine or outer side, 2 acyl side, 3 side chain; linkers in the order of their positions; H or OH if unused. Non-standard residues stand in square brackets, D forms with d. Residues, ends and D or L forms follow the SMILES beside them. X6 = N=C(N)NCCC[C@H](N[*:1])C(=O)c1nc2ccc(C(=O)[*:2])cc2s1

Tests used:
KLK5 = target: T1, KLK5 (Homo sapiens, UniProt Q9Y337); experiment: Fluorescent kinetic enzyme inhibitor assay of KLK5 (Boc-VPR-AMC); type: biochemical; details: Table 4; 7.5 nM KLK5, 100 μM substrate
T1 construct: purchased R&D Systems 1108-SE-010
T1 sequence (Q9Y337 23-293): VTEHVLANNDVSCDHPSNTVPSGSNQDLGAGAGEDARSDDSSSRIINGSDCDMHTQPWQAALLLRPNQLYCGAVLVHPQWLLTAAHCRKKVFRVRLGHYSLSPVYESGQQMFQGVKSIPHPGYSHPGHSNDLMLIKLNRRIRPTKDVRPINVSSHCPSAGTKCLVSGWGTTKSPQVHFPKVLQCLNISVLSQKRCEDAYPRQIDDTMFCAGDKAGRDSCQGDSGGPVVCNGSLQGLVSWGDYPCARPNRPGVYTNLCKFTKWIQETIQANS
Experimental: Fluorescent Kinetic Enzyme Inhibitor Assay of KLK5: Inhibitors (11-pt serial dilutions, 0-20 μM final concentration in reaction) were serially diluted in DMSO (2% DMSO final concentration) and then mixed with KLK5 (#1108-SE-010, R&D Systems, Minneapolis, Minnesota) in black 384 well plates (Corning #3575. Corning, NY). The final assay concentration for KLK5 is 7.5 nM in TNC buffer (25 mM Tris, 150 mM NaCl, 5 mM CaCl2), 0.01% Triton X-100, pH 8). After thirty minutes incubation at room temperature, Boc-VPR-AMC substrate was added. The final substrate concentrations for assay is 100 μM. Changes in fluorescence (excitation at 380 nm and emission at 460 nm) were measured at room temperature over time in a Biotek Synergy 2 plate reader (Winnoski, VT). Using GraphPad Prism version 6.04 software program, (GraphPad Software, San Diego, CA, graphpad.com), a four parameter curve fit was used to determine the inhibitor IC50s from a plot of the mean reaction velocity versus the inhibitor concentration. The IC50 values represent the average of three or more separate experimental determinations.

[1] = tested on: VSVpp (SARS-2-S) entry into TMPRSS2-positive Calu-3 cells
activated hepsin = target: T2, activated hepsin (Homo sapiens, UniProt P05981); experiment: Fluorescent kinetic enzyme assay of hepsin activity (Boc-QAR-AMC); type: biochemical
T2 construct: purchased R&D Systems 4776-SE-010
T2 sequence (P05981 163-417 limits assumed): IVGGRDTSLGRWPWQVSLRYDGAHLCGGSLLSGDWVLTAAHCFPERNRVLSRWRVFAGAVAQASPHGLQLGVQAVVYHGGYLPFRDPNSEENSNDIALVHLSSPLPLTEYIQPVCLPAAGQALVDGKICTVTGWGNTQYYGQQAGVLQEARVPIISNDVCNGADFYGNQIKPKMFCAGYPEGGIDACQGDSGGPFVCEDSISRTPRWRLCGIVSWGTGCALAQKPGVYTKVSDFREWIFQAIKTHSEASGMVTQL
T2 sequence (P05981 1-162 partner limits assumed): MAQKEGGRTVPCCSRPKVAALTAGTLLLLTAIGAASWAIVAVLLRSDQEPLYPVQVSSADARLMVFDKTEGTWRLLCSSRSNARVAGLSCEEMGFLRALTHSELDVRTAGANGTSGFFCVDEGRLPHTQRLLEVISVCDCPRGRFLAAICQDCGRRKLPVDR
Experimental: (§4) After thirty minutes of incubation at room temperature, Boc-QLR-AMC substrate was added (HGFA assay) or Boc-QAR-AMC substrate (matriptase, and hepsin assays). […] From a plot of the mean reaction velocity versus the inhibitor concentration, a non-linear four parameter curve fit was performed using GraphPad Prism (GraphPad Software, San Diego, CA) to determine inhibitor IC50s. The IC50 values were determined from the average of three or more separate experimental determinations. Apparent Ki values were calculated using the Cheng and Prusoff equation (Ki=IC50/(1+[S]/Km).
(§5) Inhibitors were pre-incubated with protease followed by the addition of the substrate. Inhibition of substrate proteolysis derived fluorescence was monitored kinetically over a period of one hour.

recombinant thrombin = recombinant thrombin (Homo sapiens, UniProt P00734); experiment: Chromogenic kinetic enzyme assay of thrombin (S2238); type: biochemical; details: Table 2; chromogenic assay; read-out: Thrombin* (IC50 nM)
Experimental: (§1) Using GraphPad Prism (GraphPad Software, San Diego, CA), a four-parameter curve fit was used to determine the inhibitor IC50s from a plot of the mean reaction velocity versus the inhibitor concentration. The IC50 values represent the average of three or more separate experimental determinations. Apparent Ki values were calculated from the IC50 values using the Cheng and Prusoff equation (Ki=IC50/(1+[S]/Km).
(§2) Using GraphPad Prism version 6.04 software program, (GraphPad Software, San Diego, CA, graphpad.com), a four parameter curve fit was used to determine the inhibitor IC50s from a plot of the mean reaction velocity versus the inhibitor concentration.
(§3) Fluorescent inhibitor and chromogenic proteolytic assays were performed for compounds prepared in Example 11 in general accordance with the procedures described in Example 9.

[2] = target: T3, recombinant HGFA serine protease domain (Homo sapiens, UniProt Q04756); experiment: Fluorescent kinetic enzyme assay of HGFA activity (Boc-QLR-AMC); type: biochemical; details: Table 2; read-out: HGFA (IC50 nM)
T3 construct: His6 tag (N); seven amino acid spacer plus TEV cleavage site (N); made in house; host or cells: High 5 insect cells (baculovirus; Sf9 for virus production)
T3 sequence (Q04756 373-655): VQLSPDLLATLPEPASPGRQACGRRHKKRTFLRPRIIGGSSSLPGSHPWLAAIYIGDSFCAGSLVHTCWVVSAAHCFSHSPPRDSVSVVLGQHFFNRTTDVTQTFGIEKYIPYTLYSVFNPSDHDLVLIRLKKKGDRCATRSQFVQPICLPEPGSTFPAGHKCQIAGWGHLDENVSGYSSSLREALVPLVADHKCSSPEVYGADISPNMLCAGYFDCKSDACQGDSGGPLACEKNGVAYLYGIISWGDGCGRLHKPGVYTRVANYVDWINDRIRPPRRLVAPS
In short: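 His-tagged HGFA protease domain from baculovirus-infected High 5 cells, 6.25 nM in pH 8 Tris/NaCl/5 mM CaCl2/0.01% Triton X-100 with 2% DMSO. IC50 from four-parameter velocity fit (≥3 runs); apparent Ki by Cheng–Prusoff.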

matriptase = target: T4, matriptase (Homo sapiens, UniProt Q9Y5Y6); experiment: Fluorescent kinetic enzyme assay of matriptase activity (Boc-QAR-AMC); type: biochemical; details: Table 2; read-out: Matriptase (IC50 nM)
T4 construct: purchased R&D Systems 3946-SE-010
T4 sequence (Q9Y5Y6 615-855 limits assumed): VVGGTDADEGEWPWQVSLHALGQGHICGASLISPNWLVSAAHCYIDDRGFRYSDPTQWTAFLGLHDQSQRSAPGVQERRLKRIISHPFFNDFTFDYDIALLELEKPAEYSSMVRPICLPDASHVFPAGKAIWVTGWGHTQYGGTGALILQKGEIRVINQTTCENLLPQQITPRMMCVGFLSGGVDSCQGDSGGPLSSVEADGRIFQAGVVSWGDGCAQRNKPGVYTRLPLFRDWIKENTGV
Experimental: as §4, §5

Factor Xa = Factor Xa (Homo sapiens, UniProt P00742); experiment: Chromogenic kinetic enzyme assay of Factor Xa (S2222); type: biochemical; details: Table 2; chromogenic assay; read-out: Factor Xa* (IC50 nM)
Factor Xa, sequence (P00742 235-488 limits assumed): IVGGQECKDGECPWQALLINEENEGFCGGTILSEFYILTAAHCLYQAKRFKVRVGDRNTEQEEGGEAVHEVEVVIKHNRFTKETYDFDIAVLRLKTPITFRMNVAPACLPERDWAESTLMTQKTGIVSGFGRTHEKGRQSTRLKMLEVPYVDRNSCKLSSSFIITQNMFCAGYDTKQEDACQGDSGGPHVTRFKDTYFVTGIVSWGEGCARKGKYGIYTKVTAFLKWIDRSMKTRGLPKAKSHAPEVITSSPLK
Factor Xa, sequence (P00742 41-179 partner limits assumed): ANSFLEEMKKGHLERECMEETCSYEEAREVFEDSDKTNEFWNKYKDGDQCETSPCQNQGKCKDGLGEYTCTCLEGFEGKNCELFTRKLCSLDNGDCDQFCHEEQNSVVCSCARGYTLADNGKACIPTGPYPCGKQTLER
Experimental: as §1, §2, §3

[3] = Table 2, read-out: Hepsin (IC50 nM)

SMILES | EC50 [1] [nM] | IC50 (activated hepsin; [3]) [nM] | IC50 (recombinant thrombin) [nM] | IC50 [2] [nM] | IC50 (matriptase) [nM] | IC50 (Factor Xa) [nM] | further results
CC(=O)N[C@@H](Cc1c[nH]c2ccccc12)C(=O)N[C@@H](Cc1ccccc1)C(=O)N[C@@H](CCCNC(=N)N)C(=O)c1nc2ccccc2s1 [AcWFRkbt, Ac-WFR-kbt] | – | – | – | – | – | – | IC50 (KLK5): > 20 µM
CC(=O)N[C@@H](CC(C)C)C(=O)N[C@@H](CC(C)C)C(=O)N[C@H](C=O)CCCNC(=N)N [Leupeptin, reference compound] | – | – | – | – | – | – | IC50 (KLK5): > 20 µM
CC(=O)N[C@H]1CC(=O)NCCCC[C@@H](C(=O)N[C@@H](CCCNC(=N)N)B(O)O)NC(=O)[C@H](CC(C)C)NC1=O [MM2030] | – | – | – | – | – | – | IC50 (KLK5): 18.1 µM
CC(=O)N[C@H](Cc1c[nH]c2ccccc12)C(=O)N[C@@H](Cc1ccccc1)C(=O)N[C@@H](CCCNC(=N)N)C(=O)c1nc2ccccc2s1 [PK-1-89, Ac-dWFR-kbt] | 32 | – | – | – | – | – | –
CC(=O)N[C@H]1CC(=O)NCCCC[C@@H](C(=O)N[C@@H](CCCNC(=N)N)C(=O)c2nc3ccccc3s2)NC(=O)[C@H](CC(C)C)NC1=O [VD2173, (3S,6S,14S)-6-acetamido-N—((S)-1-(benzo[d]thiazol-2-yl)-5-guanidino-1-oxopentan-2-yl)-3-isobutyl-2,5,8-trioxo-1,4,9-triazacyclotetradecane-14-carboxamide] | 104 | 8.4 | 699 | – | – | – | IC50 (activated hepsin; Table 6, read-out: Hepsin IC50): 10 nM
CC(=O)N[C@H]1CC(=O)NCCCC[C@@H](C(=O)N[C@@H](CCCNC(=N)N)C(=O)c2nc3ccccc3s2)NC(=O)[C@H](CCC(N)=O)NC1=O [VD3152, (3S,6S,14S)-6-acetamido-3-(3-amino-3-oxopropyl)-N—((S)-1-(benzo[d]thiazol-2-yl)-5-guanidino-1-oxopentan-2-yl)-2,5,8-trioxo-1,4,9-triazacyclotetradecane-14-carboxamide] | 138 | – | – | – | – | – | Calu-3 EC50 (nM) [1]: almost equivalent activity
CC(=O)N[C@H]1CC(=O)NCCCC[C@@H](C(=O)N[C@@H](CCCNC(=N)N)C(=O)c2nc3ccccc3s2)NC(=O)[C@H](CC(N)=O)NC1=O [VD3166, (3S,6S,14S)-6-acetamido-3-(2-amino-2-oxoethyl)-N—((S)-1-(benzo[d]thiazol-2-yl)-5-guanidino-1-oxopentan-2-yl)-2,5,8-trioxo-1,4,9-triazacyclotetradecane-14-carboxamide] | – | 10.1 | > 20000 | 15800 | 3.8 | 4650 | –
CC(=O)N[C@H]1CC(=O)NCCCC[C@@H](C(=O)N[C@@H](CCCNC(=N)N)C(=O)c2nc3ccccc3s2)NC(=O)[C@H](C(C)C)NC1=O [VD3167, (3S,6S,14S)-6-acetamido-N—((S)-1-(benzo[d]thiazol-2-yl)-5-guanidino-1-oxopentan-2-yl)-3-isopropyl-2,5,8-trioxo-1,4,9-triazacyclotetradecane-14-carboxamide] | – | 7.8 | > 20000 | 1830 | 3.2 | 1510 | –
CSCC[C@@H]1NC(=O)[C@@H](NC(C)=O)CC(=O)NCCCC[C@@H](C(=O)N[C@@H](CCCNC(=N)N)C(=O)c2nc3ccccc3s2)NC1=O [VD3173, (3S,6S,14S)-6-acetamido-N—((S)-1-(benzo[d]thiazol-2-yl)-5-guanidino-1-oxopentan-2-yl)-3-(2-(methylthio)ethyl)-2,5,8-trioxo-1,4,9-triazacyclotetradecane-14-carboxamide] | 119 | – | > 20000 | – | – | – | Calu-3 EC50 (nM) [1]: almost equivalent activity
CC(=O)N[C@H]1CC(=O)NCCCC[C@@H](C(=O)N[C@@H](CCCNC(=N)N)C(=O)c2nc3ccccc3s2)NC(=O)CNC1=O [VD3174, (6S,14S)-6-acetamido-N—((S)-1-(benzo[d]thiazol-2-yl)-5-guanidino-1-oxopentan-2-yl)-2,5,8-trioxo-1,4,9-triazacyclotetradecane-14-carboxamide] | – | 5.9 | > 20000 | 4310 | 6.3 | 6180 | –
CC(=O)N[C@H]1C/C=C\COc2ccc(cc2)C[C@@H](C(=O)N[C@@H](CCCNC(=N)N)C(=O)c2nc3ccccc3s2)NC(=O)[C@H](CC(C)C)NC1=O [VD4051, (7S,10S,13S,E)-7-acetamido-N—((S)-1-(benzo[d]thiazol-2-yl)-5-guanidino-1-oxopentan-2-yl)-10-isobutyl-8,11-dioxo-2-oxa-9,12-diaza-1(1,4)-benzenacyclotetradecaphan-4-ene-13-carboxamide] | 565 | 102 | – | – | 80.2 | 8810 | –
CC(=O)N[C@H]1CC(=O)N(C)CCCC[C@@H](C(=O)N[C@@H](CCCNC(=N)N)C(=O)c2nc3ccccc3s2)NC(=O)[C@H](CC(C)C)NC1=O [VD4192B] | – | 14.9 | 17100 | 12300 | 1.1 | 678 | –
CC(=O)N[C@H]1CC(=O)N(C)CCCC[C@@H](C(=O)N[C@@H](CCCNC(=N)N)C(=O)c2nc3ccccc3s2)NC(=O)[C@H](CC(C)C)NC1=O [VD4192C1] | – | 0.97 | > 20000 | 7730 | 111 | > 20000 | –
CC(=O)N[C@H]1CC(=O)N(C)CCCC[C@@H](C(=O)N[C@@H](CCCNC(=N)N)C(=O)c2nc3ccccc3s2)NC(=O)[C@H](CC(C)C)NC1=O [VD4192C2] | – | 1.75 | > 20000 | 8560 | 23.5 | 18500 | –
CC(=O)N[C@@H](CC(C)C)C(=O)N[C@@H](CC(C)C)C(=O)N[C@@H](CCCNC(=N)N)C(=O)c1nccs1 [ZFH6201, Ac-LLR-kt] | 349 | – | – | – | – | – | –
CC(=O)N[C@@H](CCCCN)C(=O)N[C@@H](CCC(N)=O)C(=O)N[C@@H](CC(C)C)C(=O)N[C@@H](CCCNC(=N)N)C(=O)c1nc2ccccc2s1 [ZFH7006, Ac-KQLR-kbt] | 78 | – | – | – | – | – | –
CC(=O)N[C@@H](Cc1c[nH]c2ccccc12)C(=O)N[C@@H](CC(C)C)C(=O)N[C@@H](Cc1ccccc1)C(=O)N[C@@H](CCCNC(=N)N)C(=O)c1nc2ccccc2s1 [ZFH7064, Ac-WLFR-kbt] | 150 | – | – | – | – | – | Calu-3 EC50 (nM) [1]: excellent potency
CC(=O)N[C@@H](CO)C(=O)N[C@@H](CCCCN)C(=O)N[C@@H](CC(C)C)C(=O)N[C@@H](CCCNC(=N)N)C(=O)c1nc2ccc(C(=O)N[C@H](C(N)=O)C(C)C)cc2s1 [ZFH7116, Ac-SKLR kbt V-amide] (Ac-SKL[X6]V-NH2) | 307 | – | – | – | – | – | IC50 (activated hepsin; Table 6, read-out: Hepsin IC50): 0.5 nM
